Our source for the inhibition and Ki values is ChEMBL document CHEMBL5463729, “Data for DCP probe BAY 1753011” (2023).

In test [1] the target is Mitogen-activated protein kinase kinase kinase 2 (Homo sapiens) (UniProt Q9Y2U5). Description: Inhibition of MEKK2(h) at 10.0 µM in the Eurofins Kinase panel. Particulars: Compound concentration 10.0 uM; call rule not given here.
Test [2] concerns the target Serine/threonine-protein kinase 17B (Homo sapiens) (UniProt O94768). Description: Inhibition of DRAK2(h) at 10.0 µM in the Eurofins Kinase panel. Particulars: Compound concentration 10.0 uM.
Test [3] has as its target Serine/threonine-protein kinase pim-3 (Homo sapiens) (UniProt Q86V86). Description: Inhibition of Pim-3(h) at 10.0 µM in the Eurofins Kinase panel. Particulars: Compound concentration 10.0 uM.
Test [4] has as its target Serine/threonine-protein kinase haspin (Homo sapiens) (UniProt Q8TF76). Description: Inhibition of Haspin(h) at 10.0 µM in the Eurofins Kinase panel. Particulars: Compound concentration 10.0 uM.
The target in test [5] is Dual specificity mitogen-activated protein kinase kinase 2 (Homo sapiens) (UniProt P36507). Description: Inhibition of MEK2(h) at 10.0 µM in the Eurofins Kinase panel. Particulars: Compound concentration 10.0 uM.
Dual specificity mitogen-activated protein kinase kinase 2 (Homo sapiens), sequence (P36507 whole entry): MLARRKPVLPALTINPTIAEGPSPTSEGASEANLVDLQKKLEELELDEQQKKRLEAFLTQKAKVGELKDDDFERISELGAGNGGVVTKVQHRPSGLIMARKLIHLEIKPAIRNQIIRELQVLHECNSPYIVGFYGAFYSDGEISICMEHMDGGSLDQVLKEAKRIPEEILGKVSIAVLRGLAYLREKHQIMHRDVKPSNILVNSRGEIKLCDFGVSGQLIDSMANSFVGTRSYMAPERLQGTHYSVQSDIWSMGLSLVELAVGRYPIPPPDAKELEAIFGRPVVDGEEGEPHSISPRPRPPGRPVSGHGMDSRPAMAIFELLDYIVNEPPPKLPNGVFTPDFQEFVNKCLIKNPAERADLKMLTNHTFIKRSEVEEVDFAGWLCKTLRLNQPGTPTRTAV
Test [6] concerns the target T1, Alpha-2A adrenergic receptor (Homo sapiens) (UniProt P08913).
T1 sequence (whole entry): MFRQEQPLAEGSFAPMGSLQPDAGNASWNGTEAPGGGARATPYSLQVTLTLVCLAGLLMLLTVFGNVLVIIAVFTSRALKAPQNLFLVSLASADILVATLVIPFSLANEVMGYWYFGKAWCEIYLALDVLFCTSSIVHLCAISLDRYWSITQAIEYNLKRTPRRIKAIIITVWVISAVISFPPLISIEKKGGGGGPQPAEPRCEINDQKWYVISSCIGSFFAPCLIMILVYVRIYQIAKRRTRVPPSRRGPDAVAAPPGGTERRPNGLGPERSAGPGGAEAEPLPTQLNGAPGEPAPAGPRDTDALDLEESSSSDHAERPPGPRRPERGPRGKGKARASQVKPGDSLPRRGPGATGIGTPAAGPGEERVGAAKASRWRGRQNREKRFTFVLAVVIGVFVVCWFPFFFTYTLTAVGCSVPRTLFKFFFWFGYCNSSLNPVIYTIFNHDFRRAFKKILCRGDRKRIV
Particulars: Compound concentration 10.0 uM.

Test [7] concerns the target T2, Muscarinic acetylcholine receptor M1 (Homo sapiens) (UniProt P11229).
T2 sequence (whole entry): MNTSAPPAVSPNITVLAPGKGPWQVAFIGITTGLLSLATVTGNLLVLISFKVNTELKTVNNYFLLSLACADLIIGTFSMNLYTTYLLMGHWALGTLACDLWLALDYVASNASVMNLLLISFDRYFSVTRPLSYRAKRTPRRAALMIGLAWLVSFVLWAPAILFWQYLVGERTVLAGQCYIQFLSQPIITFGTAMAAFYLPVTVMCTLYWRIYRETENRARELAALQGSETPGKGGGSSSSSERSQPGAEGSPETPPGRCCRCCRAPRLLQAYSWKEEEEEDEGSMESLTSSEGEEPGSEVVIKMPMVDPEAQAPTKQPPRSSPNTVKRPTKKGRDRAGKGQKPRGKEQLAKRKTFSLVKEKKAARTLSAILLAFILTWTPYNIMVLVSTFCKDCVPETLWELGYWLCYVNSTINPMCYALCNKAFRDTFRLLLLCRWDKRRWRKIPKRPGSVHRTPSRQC
Particulars: Compound concentration 10.0 uM.

Test [8] concerns the target Serine/threonine-protein kinase SBK1 (Homo sapiens) (UniProt Q52WX2). Description: Inhibition of SBK1(h) at 10.0 µM in the Eurofins Kinase panel. Particulars: Compound concentration 10.0 uM.
Test [9] concerns the target Insulin receptor (Homo sapiens) (UniProt P06213). Description: Inhibition of IR(h) at 10.0 µM in the Eurofins Kinase panel. Particulars: Compound concentration 10.0 uM.
Test [10] concerns the target Protein kinase C beta type (Homo sapiens) (UniProt P05771). Description: Inhibition of PKCbetaII(h) at 10.0 µM in the Eurofins Kinase panel. Particulars: Compound concentration 10.0 uM.
In test [11] the target is Serine/threonine-protein kinase pim-1 (Homo sapiens) (UniProt P11309). Description: Inhibition of Pim-1(h) at 10.0 µM in the Eurofins Kinase panel. Particulars: Compound concentration 10.0 uM.
Test [12] concerns the target Serine/threonine-protein kinase 32B (Homo sapiens) (UniProt Q9NY57). Description: Inhibition of STK32B(h) at 10.0 µM in the Eurofins Kinase panel. Particulars: Compound concentration 10.0 uM.
The target in test [13] is Tyrosine-protein kinase CSK (Homo sapiens) (UniProt P41240). Description: Inhibition of CSK(h) at 10.0 µM in the Eurofins Kinase panel. Particulars: Compound concentration 10.0 uM.
For test [14], the target named is T3, cGMP-dependent protein kinase 1 (Homo sapiens) (UniProt Q13976).
T3 sequence (whole entry): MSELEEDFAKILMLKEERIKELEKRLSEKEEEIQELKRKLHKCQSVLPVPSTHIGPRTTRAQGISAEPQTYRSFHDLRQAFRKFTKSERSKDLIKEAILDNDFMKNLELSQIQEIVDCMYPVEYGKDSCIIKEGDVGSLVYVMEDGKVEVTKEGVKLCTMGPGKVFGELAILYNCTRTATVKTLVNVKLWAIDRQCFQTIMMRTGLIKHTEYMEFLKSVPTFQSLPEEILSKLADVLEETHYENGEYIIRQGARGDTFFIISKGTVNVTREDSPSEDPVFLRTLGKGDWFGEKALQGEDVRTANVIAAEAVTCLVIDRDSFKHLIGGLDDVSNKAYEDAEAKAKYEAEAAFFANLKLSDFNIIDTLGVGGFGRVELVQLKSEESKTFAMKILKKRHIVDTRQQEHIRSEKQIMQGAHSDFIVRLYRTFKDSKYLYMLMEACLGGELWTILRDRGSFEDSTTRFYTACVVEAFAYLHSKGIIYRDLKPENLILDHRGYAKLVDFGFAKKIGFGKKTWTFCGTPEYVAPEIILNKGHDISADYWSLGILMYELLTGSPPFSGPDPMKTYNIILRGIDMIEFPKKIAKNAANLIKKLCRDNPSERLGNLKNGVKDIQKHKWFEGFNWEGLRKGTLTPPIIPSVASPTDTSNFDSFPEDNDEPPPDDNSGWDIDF
Description: Inhibition of PKG1beta(h) at 10.0 µM in the Eurofins Kinase panel. Particulars: Compound concentration 10.0 uM.

The target of test [15] is Serine/threonine-protein kinase 3 (Homo sapiens) (UniProt Q13188). Description: Inhibition of MST2(h) at 10.0 µM in the Eurofins Kinase panel. Particulars: Compound concentration 10.0 uM.
Serine/threonine-protein kinase 3 (Homo sapiens), sequence (Q13188 whole entry): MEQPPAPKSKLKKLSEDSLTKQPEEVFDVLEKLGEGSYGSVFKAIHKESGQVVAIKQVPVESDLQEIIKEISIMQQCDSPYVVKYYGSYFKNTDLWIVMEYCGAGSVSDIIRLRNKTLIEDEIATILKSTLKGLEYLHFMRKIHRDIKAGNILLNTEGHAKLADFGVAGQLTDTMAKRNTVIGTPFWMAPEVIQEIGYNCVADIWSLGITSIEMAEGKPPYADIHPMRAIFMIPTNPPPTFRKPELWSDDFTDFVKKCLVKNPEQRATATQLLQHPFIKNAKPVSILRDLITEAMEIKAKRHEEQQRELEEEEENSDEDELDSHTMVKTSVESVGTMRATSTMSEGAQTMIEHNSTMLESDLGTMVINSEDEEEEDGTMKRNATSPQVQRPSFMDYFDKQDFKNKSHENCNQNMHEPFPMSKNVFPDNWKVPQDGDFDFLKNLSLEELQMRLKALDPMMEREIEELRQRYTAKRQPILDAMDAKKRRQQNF
The target of test [16] is D(3) dopamine receptor (Homo sapiens) (UniProt P35462). Particulars: Compound concentration 10.0 uM.
D(3) dopamine receptor (Homo sapiens), sequence (P35462 whole entry): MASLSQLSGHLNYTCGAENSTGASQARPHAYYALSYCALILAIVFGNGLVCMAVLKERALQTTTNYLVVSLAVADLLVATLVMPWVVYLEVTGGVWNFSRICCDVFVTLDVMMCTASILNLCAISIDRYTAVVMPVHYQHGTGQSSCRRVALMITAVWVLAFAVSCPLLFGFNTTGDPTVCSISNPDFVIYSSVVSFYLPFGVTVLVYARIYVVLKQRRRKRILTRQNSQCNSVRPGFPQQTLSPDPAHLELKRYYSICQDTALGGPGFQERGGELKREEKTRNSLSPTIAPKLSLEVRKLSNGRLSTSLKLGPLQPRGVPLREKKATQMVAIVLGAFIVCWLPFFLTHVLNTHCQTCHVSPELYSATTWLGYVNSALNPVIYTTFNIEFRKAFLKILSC
The target in test [17] is Sodium-dependent noradrenaline transporter (Homo sapiens, UniProt P23975). Particulars: Compound concentration 10.0 uM.
Sodium-dependent noradrenaline transporter, sequence (P23975 whole entry): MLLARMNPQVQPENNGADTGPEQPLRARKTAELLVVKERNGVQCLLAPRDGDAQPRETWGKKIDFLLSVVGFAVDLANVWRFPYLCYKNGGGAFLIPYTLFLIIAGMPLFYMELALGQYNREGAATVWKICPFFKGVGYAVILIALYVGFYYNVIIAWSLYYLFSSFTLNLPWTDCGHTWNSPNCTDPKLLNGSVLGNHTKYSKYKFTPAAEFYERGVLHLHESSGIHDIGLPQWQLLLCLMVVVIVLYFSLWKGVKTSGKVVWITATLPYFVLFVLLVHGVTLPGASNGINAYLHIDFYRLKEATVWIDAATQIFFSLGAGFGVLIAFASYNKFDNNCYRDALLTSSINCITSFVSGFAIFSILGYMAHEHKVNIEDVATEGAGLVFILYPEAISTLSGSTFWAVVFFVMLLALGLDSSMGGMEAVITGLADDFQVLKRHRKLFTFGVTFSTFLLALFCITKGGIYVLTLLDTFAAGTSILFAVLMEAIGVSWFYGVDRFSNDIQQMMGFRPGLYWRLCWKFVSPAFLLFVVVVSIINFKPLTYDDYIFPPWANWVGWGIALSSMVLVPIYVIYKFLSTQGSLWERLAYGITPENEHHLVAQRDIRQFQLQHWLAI
In test [18] the target is Vasopressin V1b receptor (Homo sapiens, UniProt P47901). Description: Radiometric AVPR1B binding assay (Eurofins #287560).
Test [19] deals with Serine/threonine-protein kinase ULK2 (Homo sapiens) (UniProt Q8IYT8). Description: Inhibition of ULK2(h) at 10.0 µM in the Eurofins Kinase panel. Particulars: Compound concentration 10.0 uM.
In test [20] the target is PI3-kinase p110-delta/p85-alpha (Homo sapiens) (UniProt P27986+O00329). Description: Inhibition of PI3 Kinase (p110d/p85a)(h) at 10.0 µM in the Eurofins Kinase panel. Type of test: protein-complex assay. Particulars: Compound concentration 10.0 uM.
Test [21] addresses Serine/threonine-protein kinase 25 (Homo sapiens) (UniProt O00506). Description: Inhibition of STK25(h) at 10.0 µM in the Eurofins Kinase panel. Particulars: Compound concentration 10.0 uM.

Usually inhibition stands for the relative decrease from the control value, in per cent. As usually defined, the Ki is the equilibrium dissociation constant of an inhibitor or competing ligand from its target. The low end stands for higher affinity, the high end for lower affinity.

Mitogen-activated protein kinase kinase kinase 2 (Homo sapiens), sequence (Q9Y2U5 whole entry): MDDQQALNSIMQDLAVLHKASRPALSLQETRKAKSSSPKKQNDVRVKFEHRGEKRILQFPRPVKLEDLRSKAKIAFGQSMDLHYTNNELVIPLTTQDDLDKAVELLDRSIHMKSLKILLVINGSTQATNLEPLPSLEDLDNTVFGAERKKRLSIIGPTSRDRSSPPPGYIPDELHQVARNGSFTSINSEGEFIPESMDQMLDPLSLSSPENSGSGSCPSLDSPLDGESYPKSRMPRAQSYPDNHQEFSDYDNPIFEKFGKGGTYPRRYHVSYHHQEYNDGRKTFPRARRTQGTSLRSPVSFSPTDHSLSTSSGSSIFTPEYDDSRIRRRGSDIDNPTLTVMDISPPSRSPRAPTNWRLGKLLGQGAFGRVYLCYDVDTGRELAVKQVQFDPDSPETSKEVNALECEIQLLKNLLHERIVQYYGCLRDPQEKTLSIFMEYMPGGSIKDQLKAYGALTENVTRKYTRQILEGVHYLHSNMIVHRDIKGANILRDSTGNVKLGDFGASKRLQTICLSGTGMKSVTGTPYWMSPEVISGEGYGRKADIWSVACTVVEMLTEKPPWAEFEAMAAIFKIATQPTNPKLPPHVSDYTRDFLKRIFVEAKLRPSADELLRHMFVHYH
Serine/threonine-protein kinase 17B (Homo sapiens), sequence (O94768 whole entry): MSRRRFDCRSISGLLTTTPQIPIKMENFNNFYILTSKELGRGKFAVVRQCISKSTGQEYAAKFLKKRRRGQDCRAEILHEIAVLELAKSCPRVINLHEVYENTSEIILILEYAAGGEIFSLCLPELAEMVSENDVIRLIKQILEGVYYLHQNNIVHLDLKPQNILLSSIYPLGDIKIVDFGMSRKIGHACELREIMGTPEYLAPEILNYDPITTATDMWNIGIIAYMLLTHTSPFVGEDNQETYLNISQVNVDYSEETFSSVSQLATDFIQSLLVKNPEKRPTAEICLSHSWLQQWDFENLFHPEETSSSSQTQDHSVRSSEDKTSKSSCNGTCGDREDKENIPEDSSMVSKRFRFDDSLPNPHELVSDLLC
Serine/threonine-protein kinase haspin (Homo sapiens), sequence (Q8TF76 whole entry): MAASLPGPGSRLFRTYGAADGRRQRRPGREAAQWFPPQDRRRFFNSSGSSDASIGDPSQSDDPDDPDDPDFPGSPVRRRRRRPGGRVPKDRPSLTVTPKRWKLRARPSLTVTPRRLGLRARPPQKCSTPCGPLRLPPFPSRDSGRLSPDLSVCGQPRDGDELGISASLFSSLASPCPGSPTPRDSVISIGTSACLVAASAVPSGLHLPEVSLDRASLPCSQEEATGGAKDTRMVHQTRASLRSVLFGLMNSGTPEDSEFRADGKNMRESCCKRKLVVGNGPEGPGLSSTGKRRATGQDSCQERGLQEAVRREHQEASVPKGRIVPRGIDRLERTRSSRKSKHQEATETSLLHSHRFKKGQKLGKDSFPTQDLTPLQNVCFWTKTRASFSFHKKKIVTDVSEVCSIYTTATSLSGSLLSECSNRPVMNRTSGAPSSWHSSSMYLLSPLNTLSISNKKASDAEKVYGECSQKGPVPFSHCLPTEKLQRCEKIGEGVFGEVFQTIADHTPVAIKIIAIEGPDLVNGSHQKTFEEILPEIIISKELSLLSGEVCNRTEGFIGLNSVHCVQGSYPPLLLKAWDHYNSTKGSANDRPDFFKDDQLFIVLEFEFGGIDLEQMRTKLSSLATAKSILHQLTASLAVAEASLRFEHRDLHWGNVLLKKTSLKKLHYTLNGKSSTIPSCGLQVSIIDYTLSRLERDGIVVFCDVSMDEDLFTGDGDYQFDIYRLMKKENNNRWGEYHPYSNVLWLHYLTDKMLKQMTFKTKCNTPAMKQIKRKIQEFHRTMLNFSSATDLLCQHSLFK
Protein kinase C beta type (Homo sapiens), sequence (P05771 2-671 limits assumed): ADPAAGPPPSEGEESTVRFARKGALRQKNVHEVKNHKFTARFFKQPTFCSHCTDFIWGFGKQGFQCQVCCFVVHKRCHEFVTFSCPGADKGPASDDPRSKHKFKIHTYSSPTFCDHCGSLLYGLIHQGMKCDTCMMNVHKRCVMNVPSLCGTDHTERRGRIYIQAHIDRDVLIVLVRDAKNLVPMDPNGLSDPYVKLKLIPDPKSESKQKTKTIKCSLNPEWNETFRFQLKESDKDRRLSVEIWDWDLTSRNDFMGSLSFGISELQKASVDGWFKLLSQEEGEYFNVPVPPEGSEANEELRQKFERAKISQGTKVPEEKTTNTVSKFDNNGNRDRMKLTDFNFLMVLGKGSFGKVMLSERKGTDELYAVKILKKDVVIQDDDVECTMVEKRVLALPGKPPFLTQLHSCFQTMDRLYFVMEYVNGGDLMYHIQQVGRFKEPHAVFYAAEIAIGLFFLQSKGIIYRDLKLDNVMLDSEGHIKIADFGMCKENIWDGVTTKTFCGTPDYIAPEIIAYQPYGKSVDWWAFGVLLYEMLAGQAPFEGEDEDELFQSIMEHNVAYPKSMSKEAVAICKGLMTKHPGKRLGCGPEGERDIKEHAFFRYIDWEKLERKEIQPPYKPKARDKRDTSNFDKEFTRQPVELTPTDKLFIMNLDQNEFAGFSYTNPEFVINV
Serine/threonine-protein kinase 25 (Homo sapiens), sequence (O00506 whole entry, looked up): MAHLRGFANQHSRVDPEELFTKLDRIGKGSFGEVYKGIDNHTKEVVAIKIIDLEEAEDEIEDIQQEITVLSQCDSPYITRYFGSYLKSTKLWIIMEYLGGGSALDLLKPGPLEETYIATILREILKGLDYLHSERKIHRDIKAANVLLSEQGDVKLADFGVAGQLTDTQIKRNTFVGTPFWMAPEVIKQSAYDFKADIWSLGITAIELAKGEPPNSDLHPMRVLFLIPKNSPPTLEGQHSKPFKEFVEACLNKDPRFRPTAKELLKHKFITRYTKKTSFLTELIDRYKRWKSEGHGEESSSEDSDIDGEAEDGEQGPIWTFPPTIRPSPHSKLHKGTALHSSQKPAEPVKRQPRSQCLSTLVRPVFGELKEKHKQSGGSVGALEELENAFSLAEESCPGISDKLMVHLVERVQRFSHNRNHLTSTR

Consider `O=c1n(Cc2cncn2-c2cccc(Cl)c2)nc(-c2ccc(Cl)cc2)n1C[C@H](O)C(F)(F)F`, for which the inhibition in test [1] is 9.53%; in test [2], -2.64%; in test [3], 4.9%; in test [4], -2.75%; in [5] it was 6.76%; in test [6], -3.35%. Further, the inhibition in [7] is 1%; in [8], 0.97%; in test [9], -7.3%; in [10] it was 4.87%; in test [11], 6.13%; in [12] it was -7.15%. The inhibition is -8.53% in [13]; -1.12% in test [14]; -1.52% in test [15]; 18.3% in test [16]; 11% in test [17]; 1.8% in test [19]. The inhibition was -4.66% in test [20] and 6.35% in test [21]. In [18], the Ki was > 10 µM (not active).
As to `C[C@H](O)c1nc(Cn2nc(-c3ccc(Cl)cc3)n(C[C@H](O)C(F)(F)F)c2=O)nn1-c1cccc(Cl)c1` [PECAVAPTAN], the inhibition in test [1] was 7.54%; in test [2], 2.39%; in test [3] it was 3.06%; in [4], 2.09%; in test [5], 0.27%; in test [6] it was 8.06%. In addition, the inhibition in test [7] was -5%; in test [8], -2.61%; in test [9], -5.21%; in test [10] it was 2.9%; in test [11] it was 0.99%; in test [12], -0.99%. The inhibition in test [13] was -8.59%; in [14], 1.79%; in [15] it was -2.77%; in test [16], 19.7%; in test [17], 71.2%; in [19], 5.09%. Moreover, the inhibition in test [20] is -1.36%; in test [21], 9.04%. For the same molecule, the Ki in test [18] is recorded as > 10 µM (not active).
